From BindingDB's records for doi:10.7270/Q2WD3Z10 (Burnham Center For Chemical Genomics, 2010)
pIC50: −log10 of the molar value.

Target: NACHT, LRR and PYD domains-containing protein 3 (Homo sapiens, UniProt Q96P20)
Test: NALP3 inhibitors in yeast, dose response, luminescent (AID 488799)

Chain of NACHT, LRR and PYD domains-containing protein 3 (Q96P20 whole entry, the tested form may be a part): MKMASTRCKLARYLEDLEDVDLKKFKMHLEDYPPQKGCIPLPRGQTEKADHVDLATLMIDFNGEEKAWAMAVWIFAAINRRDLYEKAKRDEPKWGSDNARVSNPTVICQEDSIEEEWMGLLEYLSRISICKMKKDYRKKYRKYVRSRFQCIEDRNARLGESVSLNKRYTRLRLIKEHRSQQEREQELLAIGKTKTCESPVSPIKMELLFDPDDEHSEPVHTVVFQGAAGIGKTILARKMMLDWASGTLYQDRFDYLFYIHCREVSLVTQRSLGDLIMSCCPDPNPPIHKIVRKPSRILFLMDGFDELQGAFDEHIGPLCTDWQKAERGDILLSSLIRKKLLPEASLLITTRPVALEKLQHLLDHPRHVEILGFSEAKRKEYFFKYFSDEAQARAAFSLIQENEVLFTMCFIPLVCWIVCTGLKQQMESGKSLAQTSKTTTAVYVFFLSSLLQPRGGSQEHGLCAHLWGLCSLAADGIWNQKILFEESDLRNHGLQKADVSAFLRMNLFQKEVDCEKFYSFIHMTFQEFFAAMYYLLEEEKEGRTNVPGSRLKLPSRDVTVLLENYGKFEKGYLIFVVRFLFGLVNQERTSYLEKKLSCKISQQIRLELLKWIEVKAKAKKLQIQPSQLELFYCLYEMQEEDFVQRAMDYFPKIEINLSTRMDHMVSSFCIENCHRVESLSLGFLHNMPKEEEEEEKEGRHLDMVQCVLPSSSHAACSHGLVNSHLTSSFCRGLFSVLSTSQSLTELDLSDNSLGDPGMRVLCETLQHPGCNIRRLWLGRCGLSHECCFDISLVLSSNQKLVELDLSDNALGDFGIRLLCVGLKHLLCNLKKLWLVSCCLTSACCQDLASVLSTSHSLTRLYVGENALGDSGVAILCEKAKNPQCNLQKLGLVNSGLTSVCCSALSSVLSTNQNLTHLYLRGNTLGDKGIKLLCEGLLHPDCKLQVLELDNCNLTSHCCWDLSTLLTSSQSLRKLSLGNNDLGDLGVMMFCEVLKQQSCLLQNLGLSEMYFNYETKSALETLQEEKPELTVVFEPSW

Row | SMILES | pIC50
1 | Cc1csc2nc(=O)c(C(=O)NCCC3=CCCCC3)c(O)n12 | 5.39
2 | C=CCc1c(C)nc(C)nc1N=NCc1ccccc1O [2-[(5-Allyl-2,6-dimethyl-pyrimidin-4-yl)-hydrazonomethyl]-phenol] | 4.34
3 | O=C(NCCCc1ccccc1)c1c(O)n2ccsc2nc1=O [5-oxidanyl-7-oxidanylidene-N-(3-phenylpropyl)-[1,3]thiazolo[3,2-a]pyrimidine-6-carboxamide] | 5.02
4 | O=C1C=CC(/N=N/c2ccc([N+](=O)[O-])cc2Cl)=CC1C(=O)Nc1cccc(Cl)c1 (stereo unspecified) [(3Z)-3-[(2-chloro-4-nitrophenyl)hydrazinylidene]-N-(3-chlorophenyl)-6-oxocyclohexa-1,4-diene-1-carboxamide] | 5.87
5 | CCCCCC(=O)N1CCN(CCNC=C2C(=O)CC(c3ccco3)CC2=O)CC1 (stereo unspecified) [SMR000019406] | 5.14
6 | O=C(NCCC1=CCCCC1)c1c(O)n2ccsc2nc1=O [SMR000811826] | 5.42
